Test results: patent publication US20230051589A1, “COMPOUNDS AND COMPOSITIONS FOR TREATING CONDITIONS ASSOCIATED WITH NLRP ACTIVITY” (Novartis AG, priority 2018, published 2023)

test system: IL-1β production in PMA-differentiated THP-1 cells; assay: IL-1β production in PMA-differentiated THP-1 cells stimulated with gramicidin (hTHP-1 assay, 2% fetal bovine serum; Procedures 1-3); assay type: cell-based, human; conditions: Homo sapiens, THP-1, Table B1; hTHP-1 assay containing 2% fetal bovine serum, gramicidin stimulation, IL-1β readout; read-out: hTHP-1 IC50 (average)
Method: The following protocol is suitable for testing the activity of the compounds disclosed herein.
Procedure 1: IL-1β Production in PMA-Differentiated THP-1 Cells Stimulated with Gramicidin.
THP-1 cells were purchased from the American Type Culture Collection and sub-cultured according to instructions from the supplier. Cells were cultured in complete RPMI 1640 (containing 10% heat inactivated FBS, penicillin (100 units/ml) and streptomycin (100 μg/ml)), and maintained in log phase prior to experimental setup. Prior to the experiment, compounds were dissolved in dimethyl sulfoxide (DMSO) to generate a 30 mM stock. The compound stock was first pre-diluted in DMSO to 3, 0.34, 0.042 and 0.0083 mM intermediate concentrations and subsequently spotted using Echo550 liquid handler into an empty 384-well assay plate to achieve desired final concentration (e.g. 100, 33, 11, 3.7, 1.2, 0.41, 0.14, 0.046, 0.015, 0.0051, 0.0017 μM). DMSO was backfilled in the plate to achieve a final DMSO assay concentration of 0.37%. The plate was then sealed and stored at room temperature until required.
THP-1 cells were treated with PMA (Phorbol 12-myristate 13-acetate) (20 ng/ml) for 16-18 hours. On the day of the experiment the media was removed and adherent cells were detached with trypsin for 5 minutes. Cells were then harvested, washed with complete RPMI 1640, spun down, and resuspended in RPMI 1640 (containing 2% heat inactivated FBS, penicillin (100 units/ml) and streptomycin (100 μg/ml). The cells were plated in the 384-well assay plate containing the spotted compounds at a density of 50,000 cells/well (final assay volume 50 μl). Cells were incubated with compounds for 1 hour and then stimulated with gramicidin (5 μM) (Enzo) for 2 hours. Plates were then centrifuged at 340 g for 5 min. Cell free supernatant (40 μL) was collected using a 96-channel PlateMaster (Gilson) and the production of IL-1β was evaluated by HTRF (cisbio). The plates were incubated for 18 h at 4° C. and read using the preset HTRF program (donor emission at 620 nm, acceptor emission at 668 nm) of the SpectraMax i3x spectrophotometer (Molecular Devices, software SoftMax 6). A vehicle only control and a dose titration of CRID3 (100-0.0017 μM) were run concurrently with each experiment.
Procedure 2: IL-1β Production in PMA-Differentiated THP-1 Cells Stimulated with Gramicidin.
THP-1 cells were purchased from the American Type Culture Collection and sub-cultured according to instructions from the supplier. Prior to experiments, cells were cultured in complete RPMI 1640 (containing 10% heat inactivated FBS, penicillin (100 units/ml) and streptomycin (100 μg/ml)), and maintained in log phase prior to experimental setup. Prior to the experiment THP-1 were treated with PMA (Phorbol 12-myristate 13-acetate) (20 ng/ml) for 16-18 hours. Compounds were dissolved in dimethyl sulfoxide (DMSO) to generate a 30 mM stock. On the day of the experiment the media was removed and adherent cells were detached with trypsin for 5 minutes. Cells were then harvested, washed with complete RPMI 1640, spun down, resuspended in RPMI 1640 (containing 2% heat inactivated FBS, penicillin (100 units/ml) and streptomycin (100 μg/ml) . The cells were plated in a 384-well plate at a density of 50,000 cells/well (final assay volume 50 μl). Compounds were first dissolved in assay medium to obtain a 5× top concentration of 500 μM. 10 step dilutions (1:3) were then undertaken in assay medium containing 1.67% DMSO. 5× compound solutions were added to the culture medium to achieve desired final concentration (e.g. 100, 33, 11, 3.7, 1.2, 0.41, 0.14, 0.046, 0.015, 0.0051, 0.0017 μM). Final DMSO concentration was at 0.37%. Cells were incubated with compounds for 1 hour and then stimulated with gramicidin (5 μM) (Enzo) for 2 hours. Plates were then centrifuged at 340 g for 5 min. Cell free supernatant (40 μL) was collected using a 96-channel PlateMaster (Gilson) and the production of IL-1β was evaluated by HTRF (cisbio). […]

| IC50 [nM] | SMILES |
| --- | --- |
| 40 to 200 | C[C@@](O)(CO)c1cc(F)c([S@](N)(=O)=NC(=O)Nc2c3c(c(C#N)c4c2CCC4)CCC3)s1 (single isomer, unassigned) [Compound 411a] |
| 40 to 200 | CNCc1cc(F)c(S(N)(=O)=NC(=O)Nc2c3c(cc4c2CCC4)CCC3)s1 (single isomer, unassigned) [Compound 412a] |
| 40 to 200 | CN1CCc2cc(S(N)(=O)=NC(=O)Nc3c4c(cc5c3CCC5)CCC4)sc2C1 (single isomer, unassigned) [Compound 413a] |
| 200 to 1000 | Cc1oc(S(N)(=O)=NC(=O)Nc2c3c(cc4c2CCC4)CCC3)cc1C(C)(C)O (single isomer, unassigned) [Example 3] |
| 40 to 200 | Cc1oc(S(N)(=O)=NC(=O)Nc2c3c(cc4c2CCC4C)CCC3)cc1C(C)(C)O (single isomer, unassigned) [Example 125] |
| 1000 to 5000 | C#CCCC(=O)N(C)Cc1ccc(S(N)(=O)=NC(=O)Nc2c3c(cc4c2CCC4)CCC3)cc1 (single isomer, unassigned) [Example 312, (S) or (R)-N-(4-(N′-((1,2,3,5,6,7-hexahydro-s-indacen-4-yl)carbamoyl)-sulfamidimidoyl)benzyl)-N-methylpent-4-ynamide] |
| 40 to 200 | CC1CCc2c1cc1c(c2NC(=O)N=[S@@](N)(=O)c2cnc(C(C)(C)O)s2)CCC1 (single isomer, unassigned) [Example 323, (R, R) or (R, S)-2-(2-hydroxypropan-2-yl)-N′-((1-methyl-1,2,3,5,6,7-hexahydro-s-indacen-4-yl)carbamoyl)thiazole-5-sulfonimidamide] |
| > 30000 | CCc1ccc2cn(C)nc2c1NC(=O)N=S(N)(=O)c1ncc(C(C)(C)O)s1 (single isomer, unassigned) [Example 329, (S) or (R)-N′-((6-ethyl-2-methyl-2H-indazol-7-yl)-carbamoyl)-5-(2-hydroxy-propan-2-yl)thiazole-2-sulfonimidamide] |

same assay, conditions: Homo sapiens, THP-1, Table B3; hTHP-1 assay containing 2% fetal bovine serum, gramicidin stimulation, IL-1β readout; read-out: hTHP-1 IC50

| IC50 [nM] | SMILES |
| --- | --- |
| 200 to 1000 | C[C@](O)(COCCOCc1ccccc1)c1ccc([S@@](N)(=O)=NC(=O)Nc2c3c(cc4c2CCC4)CCC3)s1 (racemic) [Example 746, (S)-5-((S)-1-(2-(benzyloxy)ethoxy)-2-hydroxypropan-2-yl)-N′-((1,2,3,5,6,7-hexahydro-s-indacen-4-yl)carbamoyl)thiophene-2-sulfonimidamide] |
| 200 to 1000 | C[C@](O)(COCCOCc1ccccc1)c1ccc(S(N)(=O)=NC(=O)Nc2c3c(cc4c2CCC4)CCC3)s1 (mixture of isomers) [Example 747, (S) and (R)-5-((S)-1-(2-(benzyloxy)ethoxy)-2-hydroxypropan-2-yl)-N′-((1,2,3,5,6,7-hexahydro-s-indacen-4-yl)carbamoyl)thiophene-2-sulfonimidamide] |

same assay, conditions: Homo sapiens, THP-1, hTHP-1 assay containing 2% fetal bovine serum, Table B2, given as bound; read-out: IC50

| IC50 [nM] | SMILES |
| --- | --- |
| > 30000 | CC(OC(F)F)c1ccc(S(N)(=O)=NC(=O)Nc2c3c(cc4c2CCC4)CCC3)cc1 (mixture of isomers) [Example 639, (R,S) and (S,S)-4-(1-(difluoromethoxy)ethyl)-N′-((1,2,3,5,6,7-hexahydro-s-indacen-4-yl)carbamoyl) benzenesulfonimidamide (mixture of two isomers)] |

same assay, conditions: Table B1; hTHP-1 assay containing 2% fetal bovine serum, gramicidin stimulation, IL-1β readout; read-out: hTHP-1 IC50 (average)

| IC50 [nM] | SMILES |
| --- | --- |
| 200 to 1000 | CC(C)(O)c1ncc(S(N)(=O)=NC(=O)Nc2c3c(cc4c2CCC4)CCC3)s1 (single isomer, unassigned) [Example 5] |
| 8 to 40 | CC(C)(O)c1ncc(S(N)(=O)=NC(=O)Nc2c3c(cc4c2CCC4)CCC3)s1 (single isomer, unassigned) [Example 6] |
| 40 to 200 | CC(C)(O)c1ccc(S(N)(=O)=NC(=O)Nc2c3c(cc4c2CCC4)CCC3)c(F)c1 (single isomer, unassigned) [Example 87] |
| 8 to 40 | CC(C)(O)c1csc(S(N)(=O)=NC(=O)Nc2c3c(c(Cl)c4c2CCC4)CCC3)c1 (single isomer, unassigned) [Example 89] |
| 40 to 200 | CC(C)c1cc(C#N)c(F)c(C(C)C)c1NC(=O)N=S(N)(=O)c1cnc(C(C)(C)O)s1 (single isomer, unassigned) [Example 91] |
| 40 to 200 | CC(C)n1ccc(S(N)(=O)=NC(=O)Nc2c3c(cc4c2CCC4)CCC3)n1 (single isomer, unassigned) [Example 93] |
| 5000 to 30000 | CNS(=O)(=NC(=O)Nc1c2c(c(F)c3c1CCC3)CCC2)c1cc(C(C)(C)O)cs1 (single isomer, unassigned) [Example 181] |
| 5000 to 30000 | CC(C)c1cc(C#N)cc(C(C)C)c1NC(=O)N=S(N)(=O)c1cc(C(C)(C)O)cc(C(C)(C)O)c1 (single isomer, unassigned) [Example 198, N′-((4-cyano-2,6-diisopropylphenyl)carbamoyl)-3,5-bis(2-hydroxypropan-2-yl)benzenesulfonimidamide] |
| 1000 to 5000 | C#CCCC(=O)N(C)Cc1ccc(S(N)(=O)=NC(=O)Nc2c3c(cc4c2CCC4)CCC3)cc1 (single isomer, unassigned) [Example 313, (R) or (S)-N-(4-(N′-((1,2,3,5,6,7-hexahydro-s-indacen-4-yl)carbamoyl)-sulfamidimidoyl)benzyl)-N-methylpent-4-ynamide] |
| > 30000 | CCc1ccc2cn(C)nc2c1NC(=O)N=S(N)(=O)c1ncc(C(C)(C)O)s1 (single isomer, unassigned) [Example 330, (R) or (S)-N′-((6-ethyl-2-methyl-2H-indazol-7-yl)-carbamoyl)-5-(2-hydroxy-propan-2-yl)thiazole-2-sulfonimidamide] |
| 200 to 1000 | CC(C)(O)c1ncc(S(N)(=O)=NC(=O)Nc2c3c(cc4c2CCC4=O)CCC3)s1 (single isomer, unassigned) [Example 336, (R) or (S)-2-(2-Hydroxy-propan-2-yl)-N′-((1-oxo-1,2,3,5,6,7-hexahydro-s-indacen-4-yl)carbamoyl)-thiazole-5-sulfonimidamide] |
| 1000 to 5000 | CC(C)(O)c1ncc(S(N)(=O)=NC(=O)Nc2c3c(cc4c2CCC4O)CCC3)s1 (single isomer, unassigned) [Example 338, (R, S) or (R, R)-N′-((1-hydroxy-1,2,3,5,6,7-hexa-hydro-s-indacen-4-yl)-carbamoyl)-2-(2-hydroxy-propan-2-yl)thiazole-5-sulfonimidamide] |

same assay, conditions: hTHP-1 assay containing 2% fetal bovine serum, Table B2, class symbols; read-out: IC50

| IC50 [nM] | SMILES |
| --- | --- |
| 5000 to 30000 | CC(O)(CO)c1ncc(S(N)(=O)=NC(=O)Nc2c3c(c(C#N)c4c2CCC4)CCC3)s1 (mixture of isomers) [Example 635, (R,S) and (S,S)-N′-((8-cyano-1,2,3,5,6,7-hexahydro-indacen-4-yl)carbamoyl)-2-(1,2-dihydroxypropan-2-yl)thiazole-5-sulfonimidamide (mixture of two isomers)] |
| 5000 to 30000 | NS(=O)(=NC(=O)Nc1c2c(cc3c1CCC3)CCC2)c1ccc(C2CCCN2)cc1 (mixture of isomers) [Example 649, (S,R) or (R,R) and (S,S) or (R,S)-N′-((1,2,3,5,6,7-hexahydro-s-indacen-4-yl)carbamoyl)-4-(pyrrolidin-2-yl) benzenesulfonimidamide (mixture of two isomers)] |
